Source: patent US9695155B2, “Herbicidal substituted pyrimidinyloxy benzene compounds” (E. I. DU PONT DE NEMOURS AND COMPANY, priority 2013, dated 2017)

Key:
large (Lg) crabgrass = assay: Test C postemergence; assay type: in vivo, Digitaria sanguinalis; conditions: Digitaria sanguinalis, post-emergence
Procedure, shortened: (§1)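 Visual ratings on a 0–100 scale (100 = complete control) were made versus untreated controls after 13–15 greenhouse days. Chemicals in a surfactant-containing non-phytotoxic solvent were applied either preemergence to seeds in loam–sand soil or postemergence to 1- to 4-leaf plants 2–18 cm tall.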

chickweed = assay: Test C postemergence; assay type: in vivo, Stellaria media; conditions: Stellaria media, post-emergence
Procedure, shortened: as §1

barnyardgrass [1] = assay: Test A preemergence; assay type: in vivo, Echinochloa crus-galli; conditions: Echinochloa crus-galli, pre-emergence, 240 h
Procedure, shortened: (§2)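 Visual 0–100 rating (100 = complete control) taken about 10 d post-treatment relative to untreated checks. Preemergence: directed soil spray on sown loam/sand pots. Postemergence: seedlings 2–10 cm, 1–2 leaf. Non-phytotoxic solvent formulation with surfactant.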

barnyardgrass [2] = assay: Test B flooded paddy test; assay type: in vivo, Echinochloa crus-galli; conditions: Echinochloa crus-galli; Flood, 250 g ai/ha; 0 to 100 scale where 0 is no effect and 100 is complete control; read-out: Plant response rating, Barnyardgrass
Procedure, shortened: (§3)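 Compound added straight to paddy water, with pots kept flooded 3 cm above soil, on plants grown to the 2-leaf stage. Visual scoring 0-100 (100 = complete control) against untreated controls after 13 to 15 greenhouse days.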

pigweed [3] = assay: Test A preemergence; assay type: in vivo, Amaranthus retroflexus; conditions: Amaranthus retroflexus, pre-emergence
Procedure, shortened: as §2

sedge, umbrella = assay: Test B flooded paddy test; assay type: in vivo, Cyperus difformis; conditions: Cyperus difformis, Flood, 250 g ai/ha; 0 to 100 scale where 0 is no effect and 100 is complete control; read-out: Plant response rating, Sedge, Umbrella
Procedure, shortened: as §3

johnsongrass = assay: Test C postemergence; assay type: in vivo, Sorghum halepense; conditions: Sorghum halepense, post-emergence
Procedure, shortened: as §1

Italian ryegrass = assay: Test C postemergence; assay type: in vivo, Lolium multiflorum; conditions: Lolium multiflorum, post-emergence
Procedure, shortened: as §1

giant foxtail [4] = assay: Test A preemergence; assay type: in vivo, Setaria faberii; conditions: Setaria faberi, pre-emergence, 240 h
Procedure, shortened: as §2

pigweed [5] = assay: Test A postemergence; assay type: in vivo, Amaranthus retroflexus; conditions: Amaranthus retroflexus, post-emergence
Procedure, shortened: as §2

morningglory [6] = assay: Test A preemergence; assay type: in vivo, Ipomoea spp.
Procedure, shortened: as §2

corn = assay: Test C postemergence; assay type: in vivo, Zea mays; conditions: Zea mays, post-emergence
Procedure, shortened: as §1

morningglory [7] = assay: Test A postemergence; assay type: in vivo, Ipomoea spp.; conditions: Ipomoea, post-emergence, 240 h
Procedure, shortened: as §2

blackgrass = assay: Test C postemergence; assay type: in vivo, Alopecurus myosuroides; conditions: Alopecurus myosuroides, post-emergence
Procedure, shortened: as §1

giant foxtail [8] = assay: Test C postemergence; assay type: in vivo, Setaria faberii; conditions: Setaria faberi, post-emergence
Procedure, shortened: as §1

[9] = 125 g ai/ha, 0 to 100 scale where 0 is no effect and 100 is complete control, read-out: Plant response rating, Pigweed

For `N#Cc1cccc(Oc2ncc(Cl)cn2)c1-n1cc(Br)cn1` [Compound 52, 2-(4-bromo-1H-pyrazol-1-yl)-3-[(5-chloro-2-pyrimidinyl)oxy]benzonitrile], the pest or weed control at 125 g/ha (large (Lg) crabgrass; 125 g ai/ha, postemergence, read-out: Plant response rating (0 to 100), Crabgrass, Large) was 20%, the pest or weed control at 250 g/ha (large (Lg) crabgrass; 250 g ai/ha, postemergence, read-out: Plant response rating (0 to 100), Crabgrass, Large) was 40% and the pest or weed control at 31 g/ha (large (Lg) crabgrass; Postemergence, 31 g ai/ha, scale 0 to 100 (0 no effect, 100 complete control), 13 to 15 days, read-out: Plant response rating, Crabgrass, Large) was 5%. For the same compound, the pest or weed control at 62 g/ha (large (Lg) crabgrass; Postemergence, 62 g ai/ha, scale 0 to 100 (0 no effect, 100 complete control), read-out: Plant response rating, Crabgrass, Large) was 15%, the pest or weed control at 125 g/ha (chickweed; 125 g ai/ha, postemergence, read-out: Plant response rating (0 to 100), Chickweed) was 90% and the pest or weed control at 250 g/ha (chickweed; 250 g ai/ha, postemergence, read-out: Plant response rating (0 to 100), Chickweed) was 95%. The pest or weed control at 31 g/ha (chickweed; Postemergence, 31 g ai/ha, scale 0 to 100 (0 no effect, 100 complete control), 13 to 15 days, read-out: Plant response rating, Chickweed) was 40%, the pest or weed control at 62 g/ha (chickweed; Postemergence, 62 g ai/ha, scale 0 to 100 (0 no effect, 100 complete control), read-out: Plant response rating, Chickweed) was 60% and the pest or weed control at 125 g/ha (barnyardgrass [1]; 125 g ai/ha, 0 to 100 scale where 0 is no effect and 100 is complete control, read-out: Plant response rating, Barnyardgrass) was 90%. The pest or weed control at 500 g/ha (barnyardgrass [1]; 500 g ai/ha, 0 to 100 scale, 0 no effect, 100 complete control, approx. 10 days, read-out: Barnyardgrass plant response rating) was 100%, the pest or weed control at 250 g/ha (barnyardgrass [2]) was 30% and the pest or weed control at 125 g/ha (pigweed [3]; [9]) was 100%. The pest or weed control at 500 g/ha (pigweed [3]; 240 h, 500 g ai/ha, 0 to 100 scale, 0 no effect, 100 complete control, approx. 10 days, read-out: Pigweed plant response rating) was 100%, the pest or weed control at 250 g/ha (sedge, umbrella) was 95% and the pest or weed control at 125 g/ha (johnsongrass; 125 g ai/ha, postemergence, read-out: Plant response rating (0 to 100), Johnsongrass) was 5%. The pest or weed control at 250 g/ha (johnsongrass; 250 g ai/ha, postemergence, read-out: Plant response rating (0 to 100), Johnsongrass) was 10%, the pest or weed control at 31 g/ha (johnsongrass; Postemergence, 31 g ai/ha, scale 0 to 100 (0 no effect, 100 complete control), 13 to 15 days, read-out: Plant response rating, Johnsongrass) was 5% and the pest or weed control at 62 g/ha (johnsongrass; Postemergence, 62 g ai/ha, scale 0 to 100 (0 no effect, 100 complete control), read-out: Plant response rating, Johnsongrass) was 5%. For the same compound, the pest or weed control at 125 g/ha (Italian ryegrass; 125 g ai/ha, postemergence, read-out: Plant response rating (0 to 100), Ryegrass, Italian) was 10%, the pest or weed control at 250 g/ha (Italian ryegrass; 250 g ai/ha, postemergence, read-out: Plant response rating (0 to 100), Ryegrass, Italian) was 10% and the pest or weed control at 31 g/ha (Italian ryegrass; Postemergence, 31 g ai/ha, scale 0 to 100 (0 no effect, 100 complete control), 13 to 15 days, read-out: Plant response rating, Ryegrass, Italian) was 0%. For the same compound, the pest or weed control at 62 g/ha (Italian ryegrass; Postemergence, 62 g ai/ha, scale 0 to 100 (0 no effect, 100 complete control), read-out: Plant response rating, Ryegrass, Italian) was 5%, the pest or weed control at 125 g/ha (giant foxtail [4]; 125 g ai/ha, 0 to 100 scale where 0 is no effect and 100 is complete control, read-out: Plant response rating, Foxtail, Giant) was 100% and the pest or weed control at 500 g/ha (giant foxtail [4]; 500 g ai/ha, 0 to 100 scale, 0 no effect, 100 complete control, approx. 10 days, read-out: Foxtail, Giant plant response rating) was 100%. The pest or weed control at 125 g/ha (pigweed [5]; [9]) was 100%, the pest or weed control at 500 g/ha (pigweed [5]; 240 h, 500 g ai/ha, 0 to 100 scale, 0 no effect, 100 complete control, read-out: Plant response rating Pigweed) was 100% and the “Plant response rating, Morningglory” value (morningglory [6]; 125 g ai/ha, 0 to 100 scale where 0 is no effect and 100 is complete control) was 90. It also gave a pest or weed control at 500 g/ha (morningglory [6]; Ipomoea, pre-emergence, 240 h, 500 g ai/ha, 0 to 100 scale, 0 no effect, 100 complete control, approx. 10 days, read-out: Morningglory plant response rating) of 100%, a plant injury at 125 g/ha (corn; 125 g ai/ha, postemergence, read-out: Plant response rating (0 to 100), Corn) of 10% and a plant injury at 250 g/ha (corn; 250 g ai/ha, postemergence, read-out: Plant response rating (0 to 100), Corn) of 10%. For the same compound, the Corn plant response rating (crop injury, 0 = no effect, 100 = complete kill) at 31 g/ha (corn; Postemergence, 31 g ai/ha, scale 0 to 100 (0 no effect, 100 complete control), 13 to 15 days) was 5%, the Corn plant response rating (crop injury, 0 = no effect, 100 = complete kill) at 62 g/ha (corn; Postemergence, 62 g ai/ha, scale 0 to 100 (0 no effect, 100 complete control)) was 10% and the pest or weed control at 125 g/ha (morningglory [7]; 125 g ai/ha, 0 to 100 scale where 0 is no effect and 100 is complete control, read-out: Plant response rating, Morningglory) was 100%. For the same compound, the pest or weed control at 500 g/ha (morningglory [7]; 500 g ai/ha, 0 to 100 scale, 0 no effect, 100 complete control, read-out: Plant response rating Morningglory) was 100%, the pest or weed control at 125 g/ha (blackgrass; 125 g ai/ha, postemergence, read-out: Plant response rating (0 to 100), Blackgrass) was 10% and the pest or weed control at 250 g/ha (blackgrass; 250 g ai/ha, postemergence, read-out: Plant response rating (0 to 100), Blackgrass) was 25%. The pest or weed control at 31 g/ha (blackgrass; Postemergence, 31 g ai/ha, scale 0 to 100 (0 no effect, 100 complete control), 13 to 15 days, read-out: Plant response rating, Blackgrass) was 5%, the pest or weed control at 62 g/ha (blackgrass; Postemergence, 62 g ai/ha, scale 0 to 100 (0 no effect, 100 complete control), read-out: Plant response rating, Blackgrass) was 5% and the pest or weed control at 125 g/ha (giant foxtail [8]; 125 g ai/ha, postemergence, read-out: Plant response rating (0 to 100), Foxtail, Giant) was 70%. For the same compound, the pest or weed control at 250 g/ha (giant foxtail [8]; 250 g ai/ha, postemergence, read-out: Plant response rating (0 to 100), Foxtail, Giant) was 70%, the pest or weed control at 31 g/ha (giant foxtail [8]; Postemergence, 31 g ai/ha, scale 0 to 100 (0 no effect, 100 complete control), 13 to 15 days, read-out: Plant response rating, Foxtail, Giant) was 45% and the pest or weed control at 62 g/ha (giant foxtail [8]; Postemergence, 62 g ai/ha, scale 0 to 100 (0 no effect, 100 complete control), read-out: Plant response rating, Foxtail, Giant) was 50%.
